Several values for one entry are separate records, joined by “and”; a condition that tells them apart may be missing. Equal values may be shown once. Toxic doses and inconclusive results are not listed. No stated cut-off is given here; in the data, active means T/C of 150% or more; inactive means T/C below 125%.
Test system: L1210 leukemia ip in BDF1 mice, survival T/C
Assay: NCI In Vivo Anticancer Drug Screen. Data for tumor model L1210 Leukemia (intraperitoneal) in B6D2F1 (BDF1) mice
Settings: endpoint: mean survival time, higher = longer survival
Method in brief: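 Tumor was transplanted into mice, which were then dosed with test compound or vehicle alone. Survival was recorded for each group, and the treated figure was expressed relative to the control figure.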

[1] = dose: 100.0 mg/kg/injection, schedule: Q01DX009 (ip), vehicle: saline with Tween-80
[2] = dose: 100.0 mg/kg/injection, schedule: Q04DX003 (ip), vehicle: saline with Tween-80
[3] = dose: 200.0 mg/kg/injection, schedule: Q01DX009 (ip), vehicle: saline with Tween-80
[4] = dose: 200.0 mg/kg/injection, schedule: Q04DX003 (ip), vehicle: saline with Tween-80
[5] = dose: 400.0 mg/kg/injection, schedule: Q01DX009 (ip), vehicle: saline with Tween-80
[6] = dose: 400.0 mg/kg/injection, schedule: Q04DX003 (ip), vehicle: saline with Tween-80
[7] = dose: 50.0 mg/kg/injection, schedule: Q01DX001 (ip), vehicle: carboxymethylcellulose (CMC)
[8] = dose: 100.0 mg/kg/injection, schedule: Q01DX001 (ip), vehicle: carboxymethylcellulose (CMC)
[9] = dose: 200.0 mg/kg/injection, schedule: Q01DX001 (ip), vehicle: carboxymethylcellulose (CMC)
[10] = dose: 400.0 mg/kg/injection, schedule: Q01DX001 (ip), vehicle: carboxymethylcellulose (CMC)
[11] = dose: 100.0 mg/kg/injection, schedule: Q04DX003 (ip), vehicle: Klucel (hydroxypropylcellulose) (HPC)
[12] = dose: 200.0 mg/kg/injection, schedule: Q04DX003 (ip), vehicle: Klucel (hydroxypropylcellulose) (HPC)
[13] = dose: 100.0 mg/kg/injection, schedule: Q01DX001 (ip), vehicle: saline
[14] = dose: 200.0 mg/kg/injection, schedule: Q01DX001 (ip), vehicle: saline
[15] = dose: 400.0 mg/kg/injection, schedule: Q01DX001 (ip), vehicle: saline
[16] = dose: 100.0 mg/kg/injection, schedule: Q04DX002 (ip), vehicle: Klucel (hydroxypropylcellulose) (HPC)
[17] = dose: 200.0 mg/kg/injection, schedule: Q04DX002 (ip), vehicle: Klucel (hydroxypropylcellulose) (HPC)
[18] = dose: 400.0 mg/kg/injection, schedule: Q04DX002 (ip), vehicle: Klucel (hydroxypropylcellulose) (HPC)

Measured: T/C

O=C(Nc1ccccc1[N+](=O)[O-])Oc1ccc(-c2ccccc2)cc1
inactive: [1] 93 % of control and 105 % of control | dose: 100.0 mg/kg/injection, schedule: Q04DX002 (ip), vehicle: saline with Tween-80 103 % of control and 117 % of control | [2] 98 % of control | [3] 101 % of control and 92 % of control | dose: 200.0 mg/kg/injection, schedule: Q04DX002 (ip), vehicle: saline with Tween-80 107 % of control and 91 % of control | [4] 95 % of control | [5] 101 % of control and 103 % of control | dose: 400.0 mg/kg/injection, schedule: Q04DX002 (ip), vehicle: saline with Tween-80 101 % of control and 91 % of control | [6] 101 % of control

S=c1sc2ccccc2n1CCNc1ccccc1
inactive: [7] 96 % of control | [8] 100 % of control | [9] 100 % of control | [10] 89 % of control

Cc1ccc(S(=O)(=O)Nc2ccccc2)c(CC(O)(c2ccccc2)c2ccccc2)c1
inactive: dose: 50.0 mg/kg/injection, schedule: Q01DX009 (ip), vehicle: saline with Tween-80 93 % of control | [1] 86 % of control | [3] 93 % of control

O=C1NC(=O)C2(CCN(CC3COc4ccccc4O3)CC2)C(=O)N1 (stereo not given)
inactive: [11] 97 % of control | [12] 103 % of control | dose: 400.0 mg/kg/injection, schedule: Q04DX003 (ip), vehicle: Klucel (hydroxypropylcellulose) (HPC) 109 % of control

CCCCCCCCCCCCCCCCOc1cccc(C=O)c1
inactive: [2] 97 % of control | [4] 93 % of control | [6] 116 % of control

CC(C)c1nnnn1C12CC3CC(CC(C3)C1)C2
inactive: [13] 101 % of control | [14] 101 % of control | [15] 93 % of control

Cc1ccc2c(c1)C=CC(C#N)N2C(=O)OCc1ccccc1 (stereo not given)
inactive: [2] 95 % of control | [4] 97 % of control | [6] 94 % of control

c1ccc(C2CCN3c4ccc5ccccc5c4NCC23)cc1 (stereo not given)
inactive: [16] 107 % of control | [17] 93 % of control | [18] 93 % of control

CCNC(=S)NNc1ccccc1
inactive: [2] 100 % of control | [4] 96 % of control

OC1CCCC2CCC[N-]C12.OC1CCCC2CCC[N-]C12.[Mn+2] (stereo not given)
inactive: dose: 50.0 mg/kg/injection, schedule: Q04DX003 (ip), vehicle: Klucel (hydroxypropylcellulose) (HPC) 106 % of control | [11] 113 % of control | [12] 106 % of control

C=CC(=O)NC(C)C(=O)O (stereo not given)
inactive: [13] 95 % of control | [14] 102 % of control | [15] 98 % of control

Cc1ncc(CCl)c(CCl)c1O
inactive: dose: 50.0 mg/kg/injection, schedule: Q01DX009 (ip), vehicle: saline 95 % of control | dose: 100.0 mg/kg/injection, schedule: Q01DX009 (ip), vehicle: saline 92 % of control | dose: 100.0 mg/kg/injection, schedule: Q04DX003 (ip), vehicle: saline 98 % of control | dose: 200.0 mg/kg/injection, schedule: Q01DX009 (ip), vehicle: saline 97 % of control | dose: 200.0 mg/kg/injection, schedule: Q04DX003 (ip), vehicle: saline 97 % of control

CNCCc1cc2c(c(OC)c1/C=C/C(=O)/C=C/c1c(CCNC)cc3c(c1OC)OCO3)OCO2
inactive: dose: 75.0 mg/kg/injection, schedule: Q01DX001 (ip), vehicle: carboxymethylcellulose (CMC) 100 % of control | dose: 150.0 mg/kg/injection, schedule: Q01DX001 (ip), vehicle: carboxymethylcellulose (CMC) 100 % of control

CC(C)(C)OC(=O)c1ccc(C#N)cc1
inactive: [8] 96 % of control | [9] 100 % of control | [10] 100 % of control

COc1cc(C(=O)OC2CC34CCNC35CC(OC5(OC)C2O)c2cc3c(cc24)OCO3)ccc1O (stereo not given)
inactive: dose: 0.25 mg/kg/injection, schedule: Q01DX015 (ip), vehicle: carboxymethylcellulose (CMC) 100 % of control | dose: 0.5 mg/kg/injection, schedule: Q01DX015 (ip), vehicle: carboxymethylcellulose (CMC) 100 % of control | dose: 0.75 mg/kg/injection, schedule: Q01DX015 (ip), vehicle: carboxymethylcellulose (CMC) 103 % of control | dose: 1.0 mg/kg/injection, schedule: Q01DX009 (ip), vehicle: carboxymethylcellulose (CMC) 95 % of control | dose: 1.0 mg/kg/injection, schedule: Q01DX015 (ip), vehicle: carboxymethylcellulose (CMC) 104 % of control and 108 % of control | dose: 1.25 mg/kg/injection, schedule: Q01DX015 (ip), vehicle: carboxymethylcellulose (CMC) 96 % of control | dose: 1.5 mg/kg/injection, schedule: Q01DX015 (ip), vehicle: carboxymethylcellulose (CMC) 102 % of control | dose: 1.75 mg/kg/injection, schedule: Q01DX015 (ip), vehicle: carboxymethylcellulose (CMC) 98 % of control | dose: 2.0 mg/kg/injection, schedule: Q01DX009 (ip), vehicle: carboxymethylcellulose (CMC) 92 % of control | dose: 2.0 mg/kg/injection, schedule: Q01DX015 (ip), vehicle: carboxymethylcellulose (CMC) 93 % of control | dose: 2.5 mg/kg/injection, schedule: Q01DX015 (ip), vehicle: carboxymethylcellulose (CMC) 96 % of control

O=C(Nc1ccc(S(=O)(=O)NC2CCCCC2)cc1)Oc1ccc([N+](=O)[O-])cc1
inactive: [13] 96 % of control | [14] 100 % of control | [15] 100 % of control

CSc1nc(N)cc(C(N)=O)n1
inactive: dose: 100.0 mg/kg/injection, schedule: Q01DX Z (ip), vehicle: methylcellulose (MC) 101 % of control

CN(Cc1cccc(Cl)c1)C(=O)NC(C)(C)C
inactive: [16] 100 % of control | [17] 96 % of control | [18] 100 % of control

CCOC(=O)C(C)C(C)(O)c1ccccc1 (stereo not given)
inactive: [1] 95 % of control | [3] 109 % of control | [5] 96 % of control

O=C(Nc1ccc(C(=O)Nc2cccc(C3=NCCN3)c2)cc1)Nc1ccc(C(=O)Nc2cccc(C3=NCCN3)c2)cc1
inactive: dose: 3.75 mg/kg/injection, schedule: Q01DX Z (ip), vehicle: methylcellulose (MC) 101 % of control | dose: 3.8 mg/kg/injection, schedule: Q01DX Z (ip), vehicle: methylcellulose (MC) 100 % of control | dose: 7.5 mg/kg/injection, schedule: Q01DX Z (ip), vehicle: methylcellulose (MC) 97 % of control | dose: 15.0 mg/kg/injection, schedule: Q01DX Z (ip), vehicle: methylcellulose (MC) 106 % of control | dose: 30.0 mg/kg/injection, schedule: Q01DX Z (ip), vehicle: methylcellulose (MC) 118 % of control and 86 % of control | [7] 103 % of control | [8] 120 % of control | dose: 120.0 mg/kg/injection, schedule: Q01DX Z (ip), vehicle: methylcellulose (MC) 124 % of control | [9] 120 % of control | dose: 225.0 mg/kg/injection, schedule: Q01DX009 (ip), vehicle: saline with Tween-80 117 % of control | dose: 340.0 mg/kg/injection, schedule: Q01DX009 (ip), vehicle: saline with Tween-80 88 % of control | [10] 108 % of control

CCOc1ccc(/C=C/c2ccc(OCC)cc2)cc1
inactive: dose: 100.0 mg/kg/injection, schedule: Q01DX009 (ip), vehicle: Klucel (hydroxypropylcellulose) (HPC) 90 % of control | dose: 200.0 mg/kg/injection, schedule: Q01DX009 (ip), vehicle: Klucel (hydroxypropylcellulose) (HPC) 90 % of control | dose: 400.0 mg/kg/injection, schedule: Q01DX009 (ip), vehicle: Klucel (hydroxypropylcellulose) (HPC) 93 % of control

Source: PubChem BioAssay AID248 (DTP/NCI, 2004)
